The values below come from PMC6366416, “Synthesis and in vitro anticancer activity of certain novel 1-(2-methyl-6-arylpyridin-3-yl)-3-phenylureas as apoptosis-inducing agents” (Journal of Enzyme Inhibition and Medicinal Chemistry, 2019).

In assay [1] the test system is 60 cancer cell lines (NCI, USA). The assay can be described thus: NCI one-dose SRB assay, whole panel. Format: cell-based, human. The note with it: 10 μM; for Sensitive cell lines no.: cell lines with GI% higher than 10%. As to the method:
The antitumor assay was performed according to the protocol of the Drug Evaluation Branch, NCI, Bethesda[24–26]. A 48 h drug exposure protocol was adopted, and sulforhodamine B (SRB) assay[27] was utilized to assess the cell growth and viability, as reported earlier[17]^,[28].
The structures of all the newly synthesized pyridines 5a–l were submitted to the National Cancer Institute (NCI) Developmental Therapeutic Program (www.dtp.nci.nih.gov). […] Nine different types of cancer were tested in this assay: colon, ovarian, prostate, leukemia, melanoma, CNS, renal, breast and lung cancers. A 48 h drug exposure protocol was adopted, and sulforhodamine B (SRB) assay[27] was utilized to assess the cell growth and viability.
A general note: The SRB assay estimates cell density from bound dye.

For another assay, the system named is SK-OV-3. Nature of the assay: NCI one-dose SRB growth inhibition. Format: cell-based. The note with it: Homo sapiens, Ovarian Cancer, 48 h, read-out: GI% SK-OV-3. Put shortly:
(§1)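 Per NCI guidelines: treat cells 48 h, then stain with SRB to assess growth and viability.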

A further assay concerns DU-145. The assay can be described thus: NCI one-dose SRB growth inhibition. The note with it: Homo sapiens, Prostate, 48 h, read-out: GI% DU-145. Format: cell-based. The method in brief:
as §1

Take `Cc1nc(-c2ccc(F)cc2)ccc1NC(=O)Nc1ccc2c(c1)OCO2` [Compound 5d, 1-(Benzo[d][1, 3]dioxol-5-yl)-3-(6-(4-fluorophenyl)-2-methylpyridin-3-yl)urea]: the “Sensitive cell lines no.” value in assay [1] was 12. Moreover, the inhibition at 10 µM in the assay on SK-OV-3 and in the assay on DU-145 was less than 10% each time.
As to `Cc1nc(-c2ccc(Cl)cc2)ccc1NC(=O)Nc1ccc2c(c1)OCO2` [Compound 5g, 1-(Benzo[d][1,3]dioxol-5-yl)-3-(6-(4-chlorophenyl)-2-methylpyridin-3-yl)urea], the “Sensitive cell lines no.” value in assay [1] stood at 12. Further, the inhibition at 10 µM in the assay with SK-OV-3 and in the assay on DU-145 was less than 10% in each case.
Turning to `Cc1nc(-c2cccs2)ccc1NC(=O)Nc1ccc(Cl)cc1` [Compound 5i, 1-(4-Chlorophenyl)-3-(2-methyl-6-(thiophen-2-yl)pyridin-3-yl)urea], the “Sensitive cell lines no.” value in assay [1] was 9. The inhibition at 10 µM with SK-OV-3 and with DU-145 was less than 10% in each case.
With `Cc1nc(-c2ccc(F)cc2)ccc1NC(=O)Nc1cccc(C(F)(F)F)c1` [Compound 5a, 1-(6-(4-Fluorophenyl)-2-methylpyridin-3-yl)-3-(3-(trifluoromethyl)phenyl)urea], the “Sensitive cell lines no.” value in assay [1] turned out to be 42. The “mean % GI” value in assay [1] (mean over NCI panel) came out at 22%. The inhibition at 10 µM with SK-OV-3 is 13%; with DU-145 it was 11%.
In the case of `CCOC(=O)c1ccc(NC(=O)Nc2ccc(-c3cccs3)nc2C)cc1` [Compound 5j, Ethyl 4-(3-(2-methyl-6-(thiophen-2-yl)pyridin-3-yl)ureido)benzoate], in assay [1], the “Sensitive cell lines no.” value is recorded as 24. Further, the inhibition at 10 µM with SK-OV-3 and in the assay with DU-145 was less than 10% each time.
Regarding `CCOC(=O)c1ccc(NC(=O)Nc2ccc(-c3ccc(F)cc3)nc2C)cc1` [Compound 5c, Ethyl 4-(3-(6-(4-fluorophenyl)-2-methylpyridin-3-yl)ureido)benzoate], the “Sensitive cell lines no.” value in assay [1] is listed as 13. Also, the inhibition at 10 µM in the assay on SK-OV-3 and in the assay on DU-145 was less than 10% throughout.
Consider `Cc1nc(-c2ccc(Cl)cc2)ccc1NC(=O)Nc1cccc(C(F)(F)F)c1` [Compound 5e, 1-(6-(4-Chlorophenyl)-2-methylpyridin-3-yl)-3-(3-(trifluoromethyl)phenyl)urea], for which the “Sensitive cell lines no.” value in assay [1] is listed as 17. In addition, the inhibition at 10 µM in the assay on SK-OV-3 and in the assay on DU-145 was less than 10% in each case.
Consider `COc1ccc(NC(=O)Nc2ccc(-c3ccc(Cl)cc3)nc2C)cc1` [Compound 5f, 1-(6-(4-Chlorophenyl)-2-methylpyridin-3-yl)-3-(4-methoxyphenyl) urea], for which the “Sensitive cell lines no.” value in assay [1] was 19. The inhibition at 10 µM in the assay with SK-OV-3 and in the assay with DU-145 was less than 10% in each case.
Regarding `Cc1nc(-c2cccs2)ccc1NC(=O)Nc1ccc(F)cc1` [Compound 5h, 1-(4-Fluorophenyl)-3-(2-methyl-6-(thiophen-2-yl)pyridin-3-yl)urea], the “Sensitive cell lines no.” value in assay [1] stood at 23. In addition, the inhibition at 10 µM in the assay on SK-OV-3 and in the assay with DU-145 was less than 10% each time.
